Measured values: the supplement of paper PMC10307832

How the values were obtained:
Experiment in all cases: relative viability (nuclei count vs DMSO), 5 days (fraction); higher = more cells survive
[1] = compound: COc1cc(Nc2ncc3c(n2)-c2ccc(Cl)cc2C(c2c(F)cccc2OC)=NC3)ccc1C(=O)O [Alisertib] + COc1cccc2cc(-c3nc([C@H]4CC[C@H](C(=O)O)CC4)n4ncnc(N)c34)[nH]c12 [OSI-027] (partner 0.5 µM)
How it was run: (§1)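 Lung cancer cell lines in 1536-well plates were dosed by pin tool the day after seeding, either with one drug alone or with a fixed anchor-drug dose plus five library-drug doses (not always all listed) in √10 steps. After 5 days, cells were fixed and their nuclei stained in one step (final 0.05% Triton X-100, 1% formaldehyde, 1 ug/ml Hoechst), then counted on 4× images. Relative viability is the nuclei count in treated wells divided by that in vehicle wells. Values are medians of duplicate plates.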

[2] = compound: COc1cc(Nc2ncc3c(n2)-c2ccc(Cl)cc2C(c2c(F)cccc2OC)=NC3)ccc1C(=O)O [Alisertib] + CS(=O)(=O)CCNCc1ccc(-c2ccc3ncnc(Nc4ccc(OCc5cccc(F)c5)c(Cl)c4)c3c2)o1 [Lapatinib] (partner 2 µM)
How it was run: as §1

[3] = compound: COc1cc(Nc2ncc3c(n2)-c2ccc(Cl)cc2C(c2c(F)cccc2OC)=NC3)ccc1C(=O)O [Alisertib] + C[C@]1(O)C[C@@H](c2nc(-c3ccc4ccc(-c5ccccc5)nc4c3)c3c(N)nccn32)C1 [Linsitinib] (partner 1 µM)
How it was run: as §1

[4] = compound: COc1cc(Nc2ncc3c(n2)-c2ccc(Cl)cc2C(c2c(F)cccc2OC)=NC3)ccc1C(=O)O [Alisertib] + Cc1nc(NC(=O)N2CCC[C@H]2C(N)=O)sc1-c1ccnc(C(C)(C)C(F)(F)F)c1 [Alpelisib] (partner 2 µM)
How it was run: as §1

Cell Line	relative viability ([1]; first compound 0.005 µM)	relative viability ([1]; first compound 0.01581 µM)	relative viability ([1]; first compound 0.05 µM)	relative viability ([1]; first compound 0.1581 µM)	relative viability ([1]; first compound 0.5 µM)	relative viability ([2]; first compound 0.005 µM)	relative viability ([2]; first compound 0.01581 µM)	relative viability ([2]; first compound 0.05 µM)	relative viability ([2]; first compound 0.1581 µM)	relative viability ([2]; first compound 0.5 µM)	relative viability ([3]; first compound 0.005 µM)	relative viability ([3]; first compound 0.01581 µM)	relative viability ([3]; first compound 0.05 µM)	relative viability ([3]; first compound 0.1581 µM)	relative viability ([3]; first compound 0.5 µM)	relative viability ([4]; first compound 0.005 µM)	relative viability ([4]; first compound 0.01581 µM)	relative viability ([4]; first compound 0.05 µM)	relative viability ([4]; first compound 0.1581 µM)	relative viability ([4]; first compound 0.5 µM)
LXF-289	0.637	0.656	0.461	0.123	0.0861	0.743	0.654	0.666	0.168	0.166	0.843	0.814	0.21	0.194	0.116	0.909	0.592	0.215	0.133	0.0979
NCI-H23	0.518	0.377	0.287	0.17	0.144	1.01	0.427	0.27	0.176	0.171	0.621	0.545	0.228	0.191	0.155	0.819	0.462	0.228	0.173	0.157
NCI-H322M	0.568	0.517	0.466	0.326	0.351	0.564	0.616	0.548	0.296	0.315	0.895	0.883	0.435	0.459	0.356	0.64	0.794	0.857	0.476	0.303
NCI-H358	0.716	0.507	0.144	0.0797	0.0701	0.389	0.434	0.211	0.177	0.161	0.735	0.486	0.202	0.159	0.14	0.753	0.584	0.257	0.19	0.151
NCI-H460	0.618	0.578	0.218	0.0256	0.0214	0.977	0.8	0.29	0.0226	0.0161	0.786	0.54	0.162	0.027	0.0144	0.456	0.451	0.149	0.0179	0.0099
NCI-H520	0.253	0.221	0.204	0.18	0.182	0.76	0.449	0.276	0.258	0.242	0.805	0.667	0.423	0.308	0.22	0.966	0.766	0.429	0.323	0.273
NCI-H596	0.606	0.665	0.788	0.727	0.26		1	1.16	0.63	0.433		1.02	0.969	0.967	0.404		0.478	0.481	0.351	0.172
NCI-H647	0.662	0.487	0.227	0.116	0.102	0.801	0.62	0.275	0.085	0.058	1.15	0.883	0.373	0.287	0.0691	1.05	0.691	0.341	0.148	0.0808
NCI-H650	0.396	0.459	0.239	0.203	0.159	0.767	0.558	0.266	0.301	0.208	0.614	0.727	0.437	0.217	0.188	1.15	0.947	0.513	0.237	0.205
NCI-H661	0.667	0.557	0.438	0.282	0.285	0.519	0.439	0.323	0.342	0.279	0.635	0.389	0.304	0.323	0.282	0.579	0.669	0.552	0.31	0.235
NCI-H727	0.573	0.466	0.421	0.482	0.374	0.75	0.68	0.497	0.384	0.314	0.415	0.366	0.216	0.242	0.194	0.663	0.515	0.434	0.302	0.244
NCI-H838	0.334	0.397	0.311	0.16	0.119	0.827	0.673	0.391	0.257	0.164	0.962	0.845	0.573	0.278	0.202	0.904	0.993	0.484	0.315	0.224
NCI-H1355	0.346	0.367	0.356	0.154	0.173	0.914	0.837	0.671	0.258	0.184	0.791	0.8	0.394	0.22	0.154	0.767	0.783	0.296	0.197	0.154
NCI-H1395	0.521	0.605	0.527	0.415	0.356	0.865	0.843	0.795	0.596	0.391	1.18	1.02	0.716	0.509	0.488	0.968	1.23	0.994	0.558	0.362
NCI-H1437	0.722	0.699	0.394	0.219	0.154	0.729	0.576	0.45	0.218	0.13	0.951	0.775	0.365	0.15	0.104	0.91	0.836	0.425	0.213	0.112
NCI-H1563	0.742	0.768	0.684	0.695	0.54	1.02	0.654	0.85	0.892	0.598	1.04	1.01	1.01	0.935	0.744	0.967	0.848	0.9	0.824	0.719
